Where two headings read alike, the source gives them in different places. Each block holds one molecule with its values, some of them ahead of it.
Key:
[1] = system: bradykinin-induced calcium signaling; experiment: Calcium mobilization in response to bradykinin (specificity control); type: cell-based, human; parameters: key: +: pulse observed; −: no pulse observed; n.s.: non-specific signal; conditions: CCR1-293 or THP-1 cells loaded with INDO-1; compound 10 to 20 μM; bradykinin added after MIP-1α
Protocol: (§1) To detect the release of intracellular stores of calcium, cultured cells were incubated with 3 μM of INDO-1AM dye (Molecular Probes; Eugene, Oreg.) in cell media for 45 minutes at room temperature and washed with phosphate buffered saline (PBS). After INDO-1AM loading, the cells were resuspended in flux buffer (Hank's balanced salt solution (HBSS) and 1% FBS). Calcium mobilization was measured using a Photon Technology International spectrophotometer (Photon Technology International; New Jersey) with excitation at 350 nm and dual simultaneous recording of fluorescence emission at 400 nm and 490 nm. Relative intracellular calcium levels were expressed as the 400 nm/490 nm emission ratio. Experiments were performed at 37° C. with constant mixing in cuvettes each containing 10^6 cells in 2 ml of flux buffer. The chemokine ligands may be used over a range from 1 to 100 nM. The emission ratio was plotted over time (typically 2-3 minutes). Candidate ligand blocking compounds (10 to 20 μM) were added at 10 seconds, followed by chemokines at 60 seconds (MIP-1α; R&D Systems; Minneapolis, Minn.) and control […] (bradykinin; ICN Pharmaceutical, Costa Mesa, Calif.) at 150 seconds. In some experiments, candidate blocking compounds and cells were added simultaneously, and MIP-1α was added 40 seconds later.
(§2) Calcium ion release in response to MIP-1α binding was measured using the cell permeable INDO-1/AM indicator, which fluoresces in the presence of free, but not chelated, calcium ions. CCR1-293 or THP-1 cells were loaded with INDO-1 and assayed for calcium release in response to MIP-1α addition. To control for specificity, a second, non-CCR1 binding […], bradykinin, was added, which also signals via a seven transmembrane receptor. Without compound, a pulse of fluorescent signal will be seen upon MIP-1α addition.

CCR1 [2] = biological target: T1, CCR1 (Homo sapiens, UniProt P32246); experiment: Calcium mobilization in response to MIP-1α (INDO-1); type: cell-based; parameters: expressed in transfected cells; host or cells: HEK 293 (CCR1-293), pIRESpuro vector; key to MIP-1α: calcium pulse: +: pulse observed; −: no pulse observed; n.s.: non-specific signal; conditions: for MIP-1α: calcium pulse: CCR1-293 or THP-1 cells loaded with INDO-1, compound 10 to 20 μM added before MIP-1α; for Comments (inhibition of calcium signaling) / Inhibition of CCR1 calcium signaling, result in words: Table 2; for Inhibition of CCR1 calcium signaling, result in words: MIP-1α versus bradykinin
T1 sequence (P32246 1-355): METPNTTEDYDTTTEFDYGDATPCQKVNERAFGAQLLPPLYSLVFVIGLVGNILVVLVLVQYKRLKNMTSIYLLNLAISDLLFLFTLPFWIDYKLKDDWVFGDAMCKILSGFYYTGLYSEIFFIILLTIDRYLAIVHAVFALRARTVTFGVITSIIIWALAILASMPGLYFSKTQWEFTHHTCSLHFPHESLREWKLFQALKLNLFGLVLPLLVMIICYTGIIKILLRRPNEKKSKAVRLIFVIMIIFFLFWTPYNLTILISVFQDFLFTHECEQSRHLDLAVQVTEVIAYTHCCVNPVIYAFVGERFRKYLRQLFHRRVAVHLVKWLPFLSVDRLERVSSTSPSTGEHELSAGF
Protocol: as §1
CCR1 is a seven transmembrane, G-protein linked receptor. A hallmark of signaling cascades induced by the ligation of such receptors is the pulse-like release of calcium ions from intracellular stores. Calcium mobilization assays were performed to determine if the candidate MIP-1α inhibitory compounds were able to also block CCR1 signaling. To be useful, candidate compounds able to inhibit specifically ligand binding and signaling were desired.
as §2

CCR1 [3] = biological target: T1, CCR1; experiment: Inhibition of CCR1 ligand binding (125I labeled MIP-1α binding to CCR1 expressing cells); parameters: expressed in transfected cells; host or cells: NSO murine myeloma (CCR1-NSO) or HEK 293 (CCR1-293)
Protocol: CCR1 expressing cells were centrifuged and resuspended in assay buffer (20 mM HEPES pH 7.1, 140 mM NaCl, 1 mM CaCl2, 5 mM MgCl2, and with 0.2% bovine serum albumin) to a concentration of 5.6×10^6 cells/ml (CCR1-NSO) or 2.2×10^6 cells/ml ([…].). Screening assays were set up as follows. First, 0.09 ml of cells (5×10^5 CCR1-NSO cells/well or 2×10^5 CCR1-293 cells/well) was added to the assay plates containing the compounds, giving a final concentration of ˜2-10 μM each compound. Then 0.09 ml of ^125I labeled MIP-1α (obtained from Amersham; Piscataway, N.J.) diluted in assay buffer to a final concentration of ˜50 pM, yielding ˜30,000 cpm per well, was added, the plates sealed and incubated for approximately 3 hours at 4° C. on a shaker platform. Reactions were aspirated onto GF/B glass filters pre-soaked in 0.3% polyethyleneimmine (PEI) solution, on a vacuum cell harvester (Packard Instruments; Meriden, Conn.). Scintillation fluid (50 μl; Microscint 20, Packard Instruments) was added to each well, the plates were sealed and radioactivity measured in a Top Count scintillation counter (Packard Instruments). Control wells containing either diluent only (for total counts) or excess MIP-1α or MIP-1β ([…], for non-specific binding) were used to calculate the percent of total inhibition for each set of compounds. After testing the CLIP plates, wells with 40% or greater inhibition were confirmed. If confirmed, the individual compounds of the CLIP's were tested for reactivity (deconvolution step). IC50 values are those concentrations required to reduce the binding of labeled MIP-1α to the receptor by 50%.
To identify small organic molecules that prevent the receptor CCR1 from binding ligand, an assay was employed that detected radioactive ligand (MIP-1α) binding to cells expressing exogenous CCR1 on the cell surface.
A NSO murine myeloma cell line (CCR1-NSO) and a human embryonic kidney (HEK) carcinoma cell line (CCR1-293) were constructed that constitutively expressed human CCR1 on the cell surface; these cells lack other chemokine receptors that bind MIP-1α. Equal numbers of cells were added to each well in the CLIP plate, where each pool contained 10 candidate organic compounds. The cells were then incubated with radio labeled MIP-1α. Unbound ligand was removed by washing the cells, and bound ligand was determined by quantifying radioactive counts. Cells that were incubated without any organic compound gave total counts; non-specific binding was determined by incubating the cells with unlabeled ligand and labeled ligand. Percent inhibition was determined by the equation:
% inhibition=1−[(sample cpm)−(nonspecific cpm)]/[(total cpm)−(nonspecific cpm)]×100
To ascertain a candidate compound's affinity for CCR1 as well as confirm its ability to inhibit ligand binding, inhibitory activity was titered over 1×10^−8 to 1×10^−4 M range of compound concentration. The assay was essentially the same as for the CLIP screens, except the amount of compound was varied; cell number and ligand concentration were held constant. Only those compounds that were commercially available at the time of the experiments were titered. Of the 22 candidates identified, the following 16 were subjected to dose response experiments: CCX-3343, CCX-1057, CCX-1307, CCX-1513, CCX-238, CCX-3345, CCX-3493, CCX-4425, CCX-4462, CCX-4682, CCX-469, CCX-5062, CCX-5119, CCX-541, CCX-6019 and CCX-6530.

[4] = CCR1-293 cells, compound titered 1×10^−8 to 1×10^−4 M, * = partially blocked MIP-1α binding at the highest tested concentration, read-out: IC50 (Inhibition Constant; μM), CCR1-MIP-1α binding
[5] = CCR1-NSO cells, compound titered 1×10^−8 to 1×10^−4 M, read-out: IC50 (Inhibition Constant; μM), CCR1-MIP-1α binding
[6] = compound titered 1×10^−8 to 1×10^−4 M, cells not given
[7] = dose response, cells not given, read-out: CCR1 affinity (MIP-1α binding)

- MIP-1α: calcium pulse (CCR1 [2]): −
- Comments (inhibition of calcium signaling) (CCR1 [2]): Clear and specific
- IC50 (CCR1 [3]; [4]): 2 µM
- IC50 (CCR1 [3]; [5]): 0.6 µM
SMILES: O=C1NCCCCC1N(Cc1ccccc1F)C(=O)C(c1ccccc1)c1ccccc1 (stereo not shown) [CCX-469]
- Bradykinin: calcium pulse [1]: +
- Inhibition of CCR1 calcium signaling, result in words (CCR1 [2]): able to significantly and specifically inhibit signaling from CCR1

- MIP-1α: calcium pulse (CCR1 [2]): n.s.
- Comments (inhibition of calcium signaling) (CCR1 [2]): Calcium levels increased non-
- Inhibition of CCR1 calcium signaling, result in words (CCR1 [2]): non-specific effects on calcium levels
- IC50 (CCR1 [3]; [5]): 0.4 µM
SMILES: Cc1ccc(C(/C(Cl)=C(\Cl)C(=O)O)c2ccc(C)cc2C)c(C)c1 [CCX-541]
- Bradykinin: calcium pulse [1]: n.s.

- IC50 (CCR1 [3]; [4]): 2 µM
SMILES: O=C(C[n+]1ccc(-c2ccccc2)cc1)Nc1ccc([N+](=O)[O-])cc1 [CCX-1057]

- IC50 (CCR1 [3]; [4]): 2 µM
SMILES: c1ccc(C2C3=C(Nc4nc5ccccc5n42)c2ccccc2CCC3)cc1 (stereo not shown) [CCX-1080]

- IC50 (CCR1 [3]; [4]): 2 µM
SMILES: O=C(c1ccc(Cl)c(Cl)c1)C12CN3CN(CN(C3)C1)C2 [CCX-1307]

- IC50 (CCR1 [3]; [5]): 0.36 µM
SMILES: O=C(O)c1ccc2c(c1)C1C=CCC1C(C(=O)O)N2 (stereo not shown) [CCX-1959]

- IC50 (CCR1 [3]; [4]): 2 µM
SMILES: CC[n+]1c(/C=C/C=C2/N(C)c3ccccc3C2(C)C)ccc2c1c1cc(Br)ccc1n2C [CCX-2324]

- IC50 (CCR1 [3]; [7]): ~2 µM
SMILES: CC1CCC(C(C)C)C(OCC(O)CN2CCN(c3ccc(F)cc3)CC2)C1 (stereo not shown) [CCX-3343]
- Dose-response inhibition of MIP-1α binding, result in words (CCR1 [3]; [6]): failed to completely inhibit MIP-1α binding at the highest tested concentration

- IC50 (CCR1 [3]; [7]): ~2 µM
SMILES: CC1CCC(C(C)C)C(OCC(O)CN2CCC(Cc3ccccc3)CC2)C1 (stereo not shown) [CCX-3345]
- Dose-response inhibition of MIP-1α binding, result in words (CCR1 [3]; [6]): failed to completely inhibit MIP-1α binding at the highest tested concentration

- MIP-1α: calcium pulse (CCR1 [2]): +
- Comments (inhibition of calcium signaling) (CCR1 [2]): No inhibition.
- IC50 (CCR1 [3]; [4]): 18 µM
- IC50 (CCR1 [3]; [5]): 1.7 µM
SMILES: S=c1[nH]nc(-c2ccc(Cl)cc2)n1-c1cccnc1 [CCX-3493]
- Bradykinin: calcium pulse [1]: +
- Inhibition of CCR1 calcium signaling, result in words (CCR1 [2]): did not affect signaling, whether MIP-1α or bradykinin induced

- IC50 (CCR1 [3]; [5]): 44 µM
SMILES: O=C(O)C1=C(Sc2ccc(Cl)cc2)CSC1 [CCX-4682]

- IC50 (CCR1 [3]; [7]): ~2 µM
SMILES: CC(=O)C1=C(O)C(=O)N(c2ccc(Br)cc2)C1c1ccc(F)cc1 (stereo not shown) [CCX-5062]
- Dose-response inhibition of MIP-1α binding, result in words (CCR1 [3]; [6]): failed to completely inhibit MIP-1α binding at the highest tested concentration

SMILES: COC(=O)c1cc(C#N)c(Sc2c([N+](=O)[O-])cc(C(F)(F)F)cc2[N+](=O)[O-])nc1C(OC)OC [CCX-5119]
- IC50 (CCR1 [3]; read-out: IC50 (Inhibition Constant; μM), CCR1-MIP-1α binding, CCR1-293 cells, compound titered 1×10^−8 to 1×10^−4 M, * = partially blocked MIP-1α binding at the highest tested concentration): 45 µM

- IC50 (CCR1 [3]; [5]): 25 µM
SMILES: O=C(NN(Cc1c(F)cccc1Cl)c1ccccc1)C(Cl)(Cl)Cl [CCX-6019]

— patent publication US6727241B2, “Anti-inflammatory compositions and methods of use” (Chemocentryx, priority 2002, dated 2004)
